# ± gives the standard deviation of the averaged measurements.
# How the values were obtained:
# Assay in all cases: level (log10 ratio to DMSO vehicle control); higher = higher biomarker level / cell amount than vehicle control
# Pentafluoropropionamide = compound: NC(=O)C(F)(F)C(F)(F)F [Pentafluoropropionamide]; conditions: in DMSO
# Protocol: (§1)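 BioMAP Diversity Plus panel of 12 human primary cell co-culture systems (3C, 4H, LPS, SAg, BT, BF4T, BE3C, CASM3C, HDF3CGF, KF3CT, MyoF, Mphg). Compounds were added 1 h before stimulation and left for 24 h (MyoF 48 h; BT 72 h for soluble read-outs or 6 d for IgG). Biomarkers were read by ELISA, cytotoxicity by SRB, PBMC viability and proliferation by Alamar Blue. Each well value was divided by the mean of 8 DMSO control wells on the same plate and log10 transformed; duplicate blinded samples were tested at 4 concentrations.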
# [1] = compound: OCCCC(F)(F)C(F)(F)C(F)(F)C(F)(F)C(F)(F)C(F)(F)C(F)(F)F [7:3 Fluorotelomer alcohol]; conditions: 6700 nM; in DMSO
# Protocol: as §1
# [2] = compound: O=S(=O)(O)C(F)(F)C(F)(F)C(F)(F)C(F)(F)C(F)(F)C(F)(F)F [Perfluorohexanesulfonic acid]; conditions: in DMSO
# Protocol: as §1
# [3] = compound: O=C(O)C(F)(F)C(F)(F)C(F)(F)C(F)(F)C(F)(F)C(F)(F)C(F)(F)C(F)F [9-H-Perfluorononanoic acid]; conditions: in DMSO
# Protocol: as §1
# [4] = compound: OCCC(F)(F)C(F)(F)C(F)(F)C(F)(F)C(F)(F)C(F)(F)F [6:2 Fluorotelomer alcohol]; conditions: in DMSO
# Protocol: as §1
# [5] = compound: C=CC(=O)OCC(F)(F)C(F)(F)C(F)(F)C(F)(F)C(F)(F)C(F)(F)C(F)(F)F [1H,1H-Perfluorooctyl acrylate]; conditions: in DMSO
# Protocol: as §1
# [6] = compound: FC(F)(F)C(F)(F)C(F)(F)C(F)(F)C(F)(F)CCI [1-Iodo-1H,1H,2H,2H-perfluoroheptane]; conditions: in DMSO
# Protocol: as §1
Test System,level (log10) (Pentafluoropropionamide; 6700 nM),level (log10) (Pentafluoropropionamide; 20000 nM),level (log10) (Pentafluoropropionamide; 60000 nM),level (log10) [1],level (log10) ([2]; 6700 nM),level (log10) ([2]; 20000 nM),level (log10) ([2]; 60000 nM),level (log10) ([3]; 6700 nM),level (log10) ([3]; 20000 nM),level (log10) ([3]; 60000 nM),level (log10) ([4]; 6700 nM),level (log10) ([4]; 20000 nM),level (log10) ([5]; 6700 nM),level (log10) ([5]; 20000 nM),level (log10) ([5]; 60000 nM),level (log10) ([6]; 6700 nM),level (log10) ([6]; 20000 nM),level (log10) ([6]; 60000 nM)
LPS:CD40,-0.0315 ± 0.047,-0.04 ± 0.013,-0.025 ± 0.02,0.0345 ± 0.005,0.004 ± 0.018,0.011 ± 0.023,-0.0045 ± 0.054,-0.027 ± 0.023,-0.033 ± 0.016,-0.0655 ± 0.021,-0.0015 ± 0.03,-0.0315 ± 0.015,0.0745 ± 0.063,0.039 ± 0.071,-0.0125 ± 0.097,0.0475 ± 0.061,0.056 ± 0.061,0.014 ± 0.078
LPS:CD62E/E-Selectin,-0.0265 ± 0.025,-0.0185 ± 0.028,-0.004 ± 0.0071,-0.0125 ± 0.016,-0.0035 ± 0.023,0.0025 ± 0.0064,0.008 ± 0.035,0.0005 ± 0.042,0.003 ± 0.0071,0.0525 ± 0.0035,0.01 ± 0.038,-0.025 ± 0.025,0.0005 ± 0.0021,0.0095 ± 0.0092,0.0115 ± 0.011,0.0045 ± 0.012,0.004 ± 0.0042,-0.0005 ± 0.0064
LPS:CD69,-0.03 ± 0.0014,-0.0255 ± 0.016,-0.01 ± 0.0028,-0.007 ± 0.0014,-0.0125 ± 0.049,-0.0035 ± 0.047,-0.036 ± 0.052,-0.018 ± 0.0028,-0.0275 ± 0.039,-0.0575 ± 0.0035,-0.006 ± 0.04,0,0.0025 ± 0.0021,-0.0095 ± 0.0064,-0.0305 ± 0.005,-0.015 ± 0.0071,-0.015,-0.019 ± 0.0057
LPS:CD106/VCAM-1,-0.041 ± 0.0014,-0.021 ± 0.0099,-0.0135 ± 0.018,-0.031 ± 0.0085,-0.016 ± 0.017,-0.0155 ± 0.015,0.005 ± 0.016,-0.0165 ± 0.013,-0.006 ± 0.0028,0.0075 ± 0.033,-0.0045 ± 0.0078,-0.0025 ± 0.011,-0.0045 ± 0.011,-0.0165 ± 0.0021,-0.0145 ± 0.0078,-0.0045 ± 0.00071,-0.008 ± 0.0014,-0.0165 ± 0.0064
LPS:CD141/Thrombomodulin,-0.0385 ± 0.00071,-0.005 ± 0.0028,-0.01 ± 0.0014,-0.0025 ± 0.013,-0.007 ± 0.0057,-0.0065 ± 0.013,-0.008 ± 0.0014,0.015 ± 0.017,0.018 ± 0.0057,0.027 ± 0.03,0.002 ± 0.024,0.013 ± 0.0042,-0.0365 ± 0.0021,-0.052 ± 0.013,-0.052 ± 0.011,-0.016 ± 0.0085,-0.014 ± 0.0099,-0.032 ± 0.0014
LPS:CD142/Tissue Factor,0.0095 ± 0.015,-0.022 ± 0.034,-0.0425 ± 0.046,-0.0245 ± 0.0064,0.0055 ± 0.023,0.001 ± 0.0028,0 ± 0.028,-0.03 ± 0.021,-0.024 ± 0.011,0.0785 ± 0.039,0.0285 ± 0.026,-0.007 ± 0.013,0.0425 ± 0.018,0.051 ± 0.014,0.0525 ± 0.016,0.0045 ± 0.018,0.0285 ± 0.016,0.038 ± 0.0085
LPS:CXCL8/IL-8,-0.009 ± 0.013,-0.0115 ± 0.00071,0.0285 ± 0.037,-0.0305 ± 0.011,-0.0005 ± 0.0021,0.0025 ± 0.0078,0.0675 ± 0.047,0.046 ± 0.047,0.102 ± 0.021,0.17 ± 0.033,0.071 ± 0.038,0.039 ± 0.023,0.004 ± 0.0042,0.0185 ± 0.0064,0.013 ± 0.016,0.0065 ± 0.03,0.0135 ± 0.005,0.0145 ± 0.0021
LPS:IL-1alpha,0.0225 ± 0.036,-0.0175 ± 0.019,0.0255 ± 0.047,-0.0615 ± 0.013,-0.001 ± 0.0085,0.0075 ± 0.029,0.0365 ± 0.026,0.0095 ± 0.042,-0.0105 ± 0.00071,-0.014 ± 0.0099,0 ± 0.045,-0.011 ± 0.016,0.0165 ± 0.018,0.033 ± 0.023,0.042 ± 0.025,0.023 ± 0.033,0.0055 ± 0.022,0.0205 ± 0.0064
LPS:M-CSF,-0.0285 ± 0.039,-0.0055 ± 0.0064,0.023 ± 0.0042,-0.006 ± 0.025,-0.0065 ± 0.025,-0.0045 ± 0.025,0.036 ± 0.02,-0.025 ± 0.04,-0.0085 ± 0.016,0.0525 ± 0.044,0.0085 ± 0.0035,-0.005 ± 0.021,-0.001 ± 0.017,0.0045 ± 0.023,0.009 ± 0.0085,-0.0145 ± 0.0092,-0.0185 ± 0.0035,-0.031 ± 0.017
LPS:SRB,0 ± 0.014,-0.006 ± 0.0014,-0.0105 ± 0.00071,-0.002,-0.0075 ± 0.013,-0.0115 ± 0.00071,-0.0175 ± 0.018,-0.005 ± 0.016,-0.01 ± 0.014,-0.022 ± 0.0099,0.0095 ± 0.0078,0.004 ± 0.0071,-0.006 ± 0.0028,-0.0095 ± 0.0078,-0.012 ± 0.016,-0.006 ± 0.0014,-0.009 ± 0.014,-0.005 ± 0.0071
LPS:sPGE2,0.032 ± 0.0085,-0.008 ± 0.0071,-0.018 ± 0.014,0.101 ± 0.03,0.0115 ± 0.0064,-0.007 ± 0.0099,-0.106 ± 0.028,0.005 ± 0.0057,-0.0205 ± 0.0092,-0.096 ± 0.0042,-0.028 ± 0.05,-0.0465 ± 0.039,-0.045 ± 0.017,-0.0805 ± 0.0035,-0.109 ± 0.027,-0.01 ± 0.042,-0.0395 ± 0.023,-0.018 ± 0.0085
LPS:sTNF-alpha,0.05 ± 0.0014,0.0015 ± 0.023,0.0095 ± 0.04,-0.081 ± 0.05,-0.007 ± 0.025,-0.0195 ± 0.015,-0.0695 ± 0.0092,-0.0145 ± 0.012,-0.0055 ± 0.016,-0.0115 ± 0.019,-0.0335 ± 0.17,-0.016 ± 0.16,0.0115 ± 0.00071,0.0285 ± 0.011,0.021 ± 0.013,0.003 ± 0.011,-0.0065 ± 0.04,-0.0135 ± 0.046
SAg:CCL2/MCP-1,-0.012 ± 0.0014,-0.018 ± 0.0099,-0.0095 ± 0.016,0.003 ± 0.0014,0.015 ± 0.0071,0.0095 ± 0.018,0.017,-0.009 ± 0.014,-0.022 ± 0.0014,0.0245 ± 0.04,-0.0165 ± 0.0035,-0.0115 ± 0.00071,-0.014 ± 0.0071,-0.025 ± 0.0071,0.001 ± 0.024,-0.005 ± 0.0099,-0.0175 ± 0.0035,-0.006 ± 0.038
SAg:CD38,-0.026 ± 0.02,-0.0125 ± 0.028,0.0005 ± 0.0064,0.0245 ± 0.07,-0.006 ± 0.014,0.004 ± 0.038,-0.023 ± 0.014,0.0255 ± 0.039,-0.015 ± 0.0085,-0.016 ± 0.011,0.0115 ± 0.026,-0.008 ± 0.0071,-0.016 ± 0.018,-0.009 ± 0.016,-0.02 ± 0.014,-0.012 ± 0.0042,0.007 ± 0.0042,-0.0125 ± 0.016

# From the supplement of paper PMC10331698
